# Results from patent publication US20080261891A1, “COMPOSITIONS AND METHODS FOR USING SYRINGOPEPTIN 25A AND RHAMNOLIPIDS” (Utah State University, priority 2007, published 2008).
# Like-named read-outs stand apart in the source and are kept apart here. Where a SMILES comes first, the peptide text is derived from it. Bridges are numbered along the chain shown (N, C = ends). [ ]: non-standard residue; d: D form. The star is where a group is joined. ξ: configuration not given here. Decanoyl(3ξ-OH) = CCCCCCCC(O)CC(=O)*; Dab = NCC[CH](N)C(=O)O; Dhb = C/C=C(\N)C(=O)O
# Experiments:
# [1] = system: Staphylococcus aureus subsp. aureus; assay: Inhibition rate (IR), propidium iodide uptake; type: cell-based
# Protocol: (§1) The antimicrobial action for each compound was initially determined by the rate of uptake of propidium iodide (Fluoropure grade, Molecular Probes, Inc., Eugene, Oreg.) as previously described (Haughland, R. P., 2002, Handbook of fluorescent probes and research chemicals, 9th ed. Molecular Probes, Inc., Eugene, Oreg.). Briefly, all cultures were grown overnight in their respective optimal growth medium and temperature from freezer vials (Table 1). Each culture was sub-cultured twice, harvested in mid-log phase, washed with saline, and adjusted to an appropriate concentration by measuring the optical density at 600 nm. PI, with an excitation wavelength of 535 and an emission wavelength of 617, was added to the culture suspension at a final concentration of 10 μM. Each organism was treated with 50 μg/mL SP 25A and 60 μg/mL of the RL mixture in a final volume of 2.2 mL. The increase in fluorescence was measured with a Shimadzu RF 1501 spectrophotofluorometer at 15 s intervals for a maximum period of 120 min. Saline was added in place of SP 25A or RLs as a negative control. All inhibition experiments were done in replicate.
# (§2) The rate of antimicrobial action was expressed as the inhibition rate (“IR”). Curve fitting was done using OriginPro version 7.0 (Natick, Mass.). IR=((Log RFU/(Time))−C)/Time (when d Log RFU/dT>0). Where RFU=relative fluorescent units; and C=Y intercept.
# Salmonella typhimurium = assay: Inhibition rate (IR), propidium iodide uptake; type: cell-based
# Protocol: as §1, §2
# Flavobacterium devorans = assay: Inhibition rate (IR), propidium iodide uptake; type: cell-based
# Protocol: as §1, §2
# Listeria innocua = assay: Inhibition rate (IR), propidium iodide uptake; type: cell-based
# Protocol: as §1, §2
# Lactobacillus plantarum = assay: Inhibition rate (IR), propidium iodide uptake; type: cell-based
# Protocol: as §1, §2
# Micrococcus luteus = assay: Inhibition rate (IR), propidium iodide uptake; type: cell-based
# Protocol: as §1, §2
# [2] = system: Lactobacillus acidophilus; assay: Inhibition rate (IR), propidium iodide uptake; type: cell-based
# Protocol: as §1, §2
# Brevibacterium linens = assay: Inhibition rate (IR), propidium iodide uptake; type: cell-based
# Protocol: as §1, §2
# Enterobacter aerogenes = assay: Inhibition rate (IR), propidium iodide uptake; type: cell-based
# Protocol: as §1, §2
# [3] = system: Klebsiella pneumoniae subsp. Pneumoniae; assay: Inhibition rate (IR), propidium iodide uptake; type: cell-based
# Protocol: as §1, §2
# Streptococcus mutans = assay: Inhibition rate (IR), propidium iodide uptake; type: cell-based
# Protocol: as §1, §2
# Citrobacter fruendii = assay: Inhibition rate (IR), propidium iodide uptake; type: cell-based
# Protocol: as §1, §2
# [4] = system: Eschereschia coli H7:0157; assay: Inhibition rate (IR), propidium iodide uptake; type: cell-based
# Protocol: as §1, §2
# [5] = system: Streptococcus agalacticae; assay: Inhibition rate (IR), propidium iodide uptake; type: cell-based
# Protocol: as §1, §2
# Salmonella enteridis = assay: Inhibition rate (IR), propidium iodide uptake; type: cell-based
# Protocol: as §1, §2
# Streptococcus suis = assay: Inhibition rate (IR), propidium iodide uptake; type: cell-based
# Protocol: as §1, §2
# Listeria monocytogenes = assay: Inhibition rate (IR), propidium iodide uptake; type: cell-based
# Protocol: as §1, §2
# Enterococcus faecalis = assay: Inhibition rate (IR), propidium iodide uptake; type: cell-based
# Protocol: as §1, §2
# Bacillus megaterium = assay: Inhibition rate (IR), propidium iodide uptake; type: cell-based
# Protocol: as §1, §2
# Bacillus cereus = assay: Inhibition rate (IR), propidium iodide uptake; type: cell-based
# Protocol: as §1, §2
# [6] = system: Lactococcus lactis subsp. Lactis; assay: Inhibition rate (IR), propidium iodide uptake; type: cell-based
# Protocol: as §1, §2
# Erwinia herbicola = assay: Inhibition rate (IR), propidium iodide uptake; type: cell-based
# Protocol: as §1, §2
# Eschereschia coli K12 = assay: Inhibition rate (IR), propidium iodide uptake; type: cell-based
# Protocol: as §1, §2
# Clostridium sporogenes = assay: Inhibition rate (IR), propidium iodide uptake; type: cell-based
# Protocol: as §1, §2
# Bacillus subtilis = assay: Inhibition rate (IR), propidium iodide uptake; type: cell-based
# Protocol: as §1, §2
# RBC = conditions: reported by Dalla Serra et al. 1999; cited from earlier work
# [7] = system: selected human cancer cell lines;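 further: MTT dye viability readout in semi-confluent cancer cells, compound exposure 1-24 hours, MTT then 4 hours at 37 °C, compared against untreated negative control wells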
# Protocol: Cancer cell assays can be performed using the MTT dye protocol. Viability of cells may be determined by the dye response. In the following procedure, approximately 1.5×10^4 cells per well can be added and viability may be determined with the cells in a semi-confluent state. The assay can be performed in a 96-well microtiter plate using a New Brunswick Cell Counter. After addition of the compound or compounds of the present invention, the plate may incubate for 1-24 hours. MTT may be added to each well including negative control wells untreated with the compounds of the present invention. The plate would then be incubated at 37° C. for 4 hours. The liquid contents of each well can then be removed, and isopropanol with 0.1 M HCl would then be added to each well. The plate can be sealed with parafilm to prevent evaporation of the isopropanol. The plate would then be allowed to sit for approximately 5-10 minutes in order to solubilize the precipitate. Purified water would then be added to each well.
# [8] = system: organisms tested (gram-positive and gram-negative bacteria, Table 1)
smiles,measurement,setting,value
"C/C=C(\NC(=O)C(C)NC(=O)C(C)NC(=O)C(CC(C)C)NC(=O)C(NC(=O)C(C)NC(=O)C(C)NC(=O)C(NC(=O)C1CCCN1C(=O)/C(=C/C)NC(=O)CC(O)CCCCCCC)C(C)C)C(C)C)C(=O)NC(C(=O)N/C(=C\C)C(=O)NC(C)C(=O)NC(C(=O)NC(C)C(=O)NC(C)C(=O)N/C(=C\C)C(=O)NC1C(=O)NC(CO)C(=O)NC(C)C(=O)NC(C(C)C)C(=O)NC(C)C(=O)NC(CCN)C(=O)NC(CCN)C(=O)NC(Cc2ccc(O)cc2)C(=O)OC1C)C(C)C)C(C)C (centres unmarked) [SP 25A, syringopeptin 25A] ({Decanoyl(3ξ-OH)}-[Dhb]PVAAVLAA[Dhb]V[Dhb]AVAA[Dhb]TSAVA[Dab][Dab]Y; ester 18-C; configuration not given here)",IR SP 25A (50 μg/mL),[1],0.003
same,IR SP 25A (50 μg/mL),Salmonella typhimurium,0.000
same,IR SP 25A (50 μg/mL),Flavobacterium devorans,0.002
same,IR SP 25A (50 μg/mL),Listeria innocua,0.005
same,IR SP 25A (50 μg/mL),Lactobacillus plantarum,0.003
same,IR SP 25A (50 μg/mL),Micrococcus luteus,0.006
same,IR SP 25A (50 μg/mL),[2],0.003
same,IR SP 25A (50 μg/mL),Brevibacterium linens,0.009
same,IR SP 25A (50 μg/mL),Enterobacter aerogenes,0.000
same,IR SP 25A (50 μg/mL),[3],0.000
same,IR SP 25A (50 μg/mL),Streptococcus mutans,0.003
same,IR SP 25A (50 μg/mL),Citrobacter fruendii,0.000
same,IR SP 25A (50 μg/mL),[4],0.000
same,IR SP 25A (50 μg/mL),[5],0.004
same,IR SP 25A (50 μg/mL),Salmonella enteridis,0.000
same,IR SP 25A (50 μg/mL),Streptococcus suis,0.006
same,inhibition rate relative to the inhibition rate for RLs,"Listeria monocytogenes; L. monocytogenes, each compound tested by itself",approximately one-sixth
same,IR SP 25A (50 μg/mL),"Listeria monocytogenes; Listeria monocytogenes, 50 μg/mL",0.005
same,IR SP 25A (50 μg/mL),Enterococcus faecalis,0.001
same,IR SP 25A (50 μg/mL),Bacillus megaterium,0.005
same,IR SP 25A (50 μg/mL),Bacillus cereus,0.004
same,IR SP 25A (50 μg/mL),[6],0.008
same,IR SP 25A (50 μg/mL),Erwinia herbicola,0.000
same,IR SP 25A (50 μg/mL),Eschereschia coli K12,0.000
same,IR SP 25A (50 μg/mL),Clostridium sporogenes,0.008
same,IR SP 25A (50 μg/mL),Bacillus subtilis,0.006
same,concentration to achieve 50% RBC hemolysis,RBC,8880 ng/mL
same,IC50,[7]; Bone (U2OS),101.47 µg/mL
same,% cytotoxicity,"[7]; Bone (U2OS), 1.00 ug/ml",−10.06%
same,% cytotoxicity,"[7]; Bone (U2OS), 2.50 ug/ml",−3.64%
same,% cytotoxicity,"[7]; Bone (U2OS), 5.00 ug/ml",1.69%
same,% cytotoxicity,"[7]; Bone (U2OS), 10.00 ug/ml",4.93%
same,IC50,[7]; Breast (MCF-7),30.27 µg/mL
same,% cytotoxicity,"[7]; Breast (MCF-7), 1.00 ug/ml",−20.40%
same,% cytotoxicity,"[7]; Breast (MCF-7), 2.50 ug/ml",−1.12%
same,% cytotoxicity,"[7]; Breast (MCF-7), 5.00 ug/ml",1.76%
same,% cytotoxicity,"[7]; Breast (MCF-7), 10.00 ug/ml",16.52%
same,IC50,[7]; Breast (MDA-MB231),10.14 µg/mL
same,% cytotoxicity,"[7]; Breast (MDA-MB231), 1.00 ug/ml",−12.40%
same,% cytotoxicity,"[7]; Breast (MDA-MB231), 2.50 ug/ml",9.23%
same,% cytotoxicity,"[7]; Breast (MDA-MB231), 5.00 ug/ml",21.98%
same,% cytotoxicity,"[7]; Breast (MDA-MB231), 10.00 ug/ml",49.30%
same,IC50,[7]; Breast (MDA-MB435),6.25 µg/mL
same,% cytotoxicity,"[7]; Breast (MDA-MB435), 1.00 ug/ml",20.78%
same,% cytotoxicity,"[7]; Breast (MDA-MB435), 2.50 ug/ml",−5.22%
same,% cytotoxicity,"[7]; Breast (MDA-MB435), 5.00 ug/ml",18.84%
same,% cytotoxicity,"[7]; Breast (MDA-MB435), 10.00 ug/ml",79.98%
same,IC50,[7]; Cervical (HeLa),25.50 µg/mL
same,% cytotoxicity,"[7]; Cervical (HeLa), 1.00 ug/ml",1.68%
same,% cytotoxicity,"[7]; Cervical (HeLa), 2.50 ug/ml",3.50%
same,% cytotoxicity,"[7]; Cervical (HeLa), 5.00 ug/ml",1.08%
same,% cytotoxicity,"[7]; Cervical (HeLa), 10.00 ug/ml",19.61%
same,IC50,[7]; Colon (HT29),29.72 µg/mL
same,% cytotoxicity,"[7]; Colon (HT29), 1.00 ug/ml",8.89%
same,% cytotoxicity,"[7]; Colon (HT29), 2.50 ug/ml",23.85%
same,% cytotoxicity,"[7]; Colon (HT29), 5.00 ug/ml",24.59%
same,% cytotoxicity,"[7]; Colon (HT29), 10.00 ug/ml",16.83%
same,IC50,[7]; Lung (A549),11.41 µg/mL
same,% cytotoxicity,"[7]; Lung (A549), 1.00 ug/ml",15.66%
same,% cytotoxicity,"[7]; Lung (A549), 2.50 ug/ml",13.51%
same,% cytotoxicity,"[7]; Lung (A549), 5.00 ug/ml",41.14%
same,% cytotoxicity,"[7]; Lung (A549), 10.00 ug/ml",43.82%
same,IC50,[7]; Ovarian (OVCAR3),19.75 µg/mL
same,% cytotoxicity,"[7]; Ovarian (OVCAR3), 1.00 ug/ml",6.42%
same,% cytotoxicity,"[7]; Ovarian (OVCAR3), 2.50 ug/ml",16.30%
same,% cytotoxicity,"[7]; Ovarian (OVCAR3), 5.00 ug/ml",16.41%
same,% cytotoxicity,"[7]; Ovarian (OVCAR3), 10.00 ug/ml",25.31%
same,IC50,[7]; Prostate (DU145),6.56 µg/mL
same,% cytotoxicity,"[7]; Prostate (DU145), 1.00 ug/ml",26.92%
same,% cytotoxicity,"[7]; Prostate (DU145), 2.50 ug/ml",23.60%
same,% cytotoxicity,"[7]; Prostate (DU145), 5.00 ug/ml",45.22%
same,% cytotoxicity,"[7]; Prostate (DU145), 10.00 ug/ml",76.25%
same,IC50,[7]; Stomach (AGS),18.58 µg/mL
same,% cytotoxicity,"[7]; Stomach (AGS), 1.00 ug/ml",4.00%
same,% cytotoxicity,"[7]; Stomach (AGS), 2.50 ug/ml",13.87%
same,% cytotoxicity,"[7]; Stomach (AGS), 5.00 ug/ml",26.88%
same,% cytotoxicity,"[7]; Stomach (AGS), 10.00 ug/ml",26.90%
same,MIC range for the organisms tested,[8],3 to 16 µg/mL
same,MICs against gram-positive bacteria,[8],≤ 8 µg/mL
same,growth inhibition of gram-negative organisms tested,"[8]; gram-negative organisms, except F. devorans",did not inhibit the growth
